Literature values in patent US10328111B2, “Water-soluble phytocannabinoid formulations” (Solva, LLC, priority 2014, dated 2019).

C=C(C)[C@@H]1CCC(C)=C[C@H]1c1c(O)cc(CCCCC)cc1O [cannabidiol]
oral bioavailability: about 6%
